Key:
[1] = molecular target: T1, HCV polymerase 1B (Δ21 NS5B, BK) (Hepatitis C virus genotype 1b, UniProt P26663); experiment: biochemical
T1 construct: 20 to 50 nM Δ21 NS5B
Summary of the method: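 Δ21 NS5B (genotype 1b, BK […]) preincubated 15 min RT with inhibitor, 2 mM MnCl2, pH 7.4, 60–125 μM GTP; started with 20 μM CTP/ATP, 1 μM 3H-UTP, 5 nM template RNA, run 2–4 h RT. Spermine-precipitated RNA filter-captured, scintillation counted; IC50 from tight-binding (Morrison) fit.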

[2] = test system: genotype 1a-H77 subgenomic replicon cell line; experiment: microbe, parasite or virus in culture; type: cell-based, HCV; conditions: Hepatitis C virus, read-out: EC50 1a
[3] = molecular target: T2, HCV polymerase 1A (Δ21 NS5B, H77) (Hepatitis C virus genotype 1a, UniProt P27958); experiment: biochemical; conditions: IC50 1a
T2 construct: 20 to 50 nM Δ21 NS5B
Summary of the method: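 Incorporation of 1 μM ^3H-UTP, with 20 μM each of CTP and ATP on 5 nM template RNA, ran 2–4 h at room temperature. Spermine-precipitated product was filtered and scintillation-counted. IC50 came from tight-binding non-linear regression of cpm against inhibitor concentration.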

[4] = test system: genotype 1b-Con1 subgenomic replicon cell line; experiment: microbe, parasite or virus in culture; type: cell-based, HCV; conditions: Hepatitis C virus, read-out: EC50 1b

T1 sequence (P26663 2420-2989, stated change not applied): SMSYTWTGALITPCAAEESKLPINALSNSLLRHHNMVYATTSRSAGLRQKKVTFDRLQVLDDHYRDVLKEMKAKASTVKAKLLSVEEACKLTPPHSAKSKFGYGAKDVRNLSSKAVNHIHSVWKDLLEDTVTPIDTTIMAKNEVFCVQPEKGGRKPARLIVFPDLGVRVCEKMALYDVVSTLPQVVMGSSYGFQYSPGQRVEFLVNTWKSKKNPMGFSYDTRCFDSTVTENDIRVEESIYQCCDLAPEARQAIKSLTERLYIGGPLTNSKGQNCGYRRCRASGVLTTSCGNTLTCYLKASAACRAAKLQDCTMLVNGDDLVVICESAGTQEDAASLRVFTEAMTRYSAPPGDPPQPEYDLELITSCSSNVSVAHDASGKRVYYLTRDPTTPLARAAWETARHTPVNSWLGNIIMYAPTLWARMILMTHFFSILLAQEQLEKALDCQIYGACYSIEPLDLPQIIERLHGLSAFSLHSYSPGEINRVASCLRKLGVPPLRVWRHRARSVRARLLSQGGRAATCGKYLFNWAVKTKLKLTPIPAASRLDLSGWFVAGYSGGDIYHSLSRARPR
T2 sequence (P27958 2421-2990, stated change not applied): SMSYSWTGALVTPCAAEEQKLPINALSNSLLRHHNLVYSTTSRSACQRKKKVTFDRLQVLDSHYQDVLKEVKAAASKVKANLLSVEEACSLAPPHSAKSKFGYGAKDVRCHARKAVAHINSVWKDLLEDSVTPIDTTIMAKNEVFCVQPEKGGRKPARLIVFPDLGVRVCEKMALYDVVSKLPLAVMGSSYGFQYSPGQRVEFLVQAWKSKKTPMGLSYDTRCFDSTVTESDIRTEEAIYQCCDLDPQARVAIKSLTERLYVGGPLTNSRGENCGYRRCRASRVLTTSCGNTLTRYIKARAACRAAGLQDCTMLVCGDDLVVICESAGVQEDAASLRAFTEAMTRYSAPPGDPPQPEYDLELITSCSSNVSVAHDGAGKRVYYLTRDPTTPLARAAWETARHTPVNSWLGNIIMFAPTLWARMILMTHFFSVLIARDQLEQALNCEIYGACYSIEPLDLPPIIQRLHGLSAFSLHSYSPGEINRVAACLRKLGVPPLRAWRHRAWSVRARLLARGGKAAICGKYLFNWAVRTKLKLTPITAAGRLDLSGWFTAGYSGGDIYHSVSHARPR

SMILES	IC50 [1] [nM]	EC50 [2] [nM]	IC50 [3] [nM]	EC50 [4] [nM]
COc1ccc(OC)c(S(=O)(=O)Nc2ccc(NC(=O)c3cc(N4CCC(=O)NC4=O)cc(C(C)(C)C)c3OC)cc2)c1 [IA-L3-1.121, 3-tert-butyl-N-(4-(2,5-dimethoxyphenylsulfonamido)phenyl)-5-(2,4-dioxotetrahydro-pyrimidin-1(2H)-yl)-2-methoxybenzamide]	100 to 1000	> 1000	100 to 1000	100 to 1000
COc1c(C#Cc2ccc(NS(C)(=O)=O)c(C)c2)cc(N2CCC(=O)NC2=O)cc1C(C)(C)C [IA-L2-1.10, N-(4-((3-tert-butyl-5-(2,4-dioxotetrahydropyrimidin-1(2H)-yl)-2-methoxyphenyl)ethynyl)-2-methylphenyl)methanesulfonamide]	10 to 100	100 to 1000	10 to 100	10 to 100
COc1c(-c2ccc3c(CNS(C)(=O)=O)csc3c2)cc(-n2ccc(=O)[nH]c2=O)cc1C(C)(C)C [IB-L0-2.11, N-((6-(3-tert-butyl-5-(2,4-dioxo-3,4-dihydropyrimidin-1(2H)-yl)-2-methoxyphenyl)benzo[b]thiophen-3-yl)methyl)methanesulfonamide]	< 10	10 to 100	< 10	< 10
COc1c(C#Cc2ccc(NS(C)(=O)=O)cc2C)cc(N2CCC(=O)NC2=O)cc1C(C)(C)C [IA-L2-1.9, N-(4-((3-tert-butyl-5-(2,4-dioxotetrahydropyrimidin-1(2H)-yl)-2-methoxyphenyl)ethynyl)-3-methylphenyl)methanesulfonamide]	< 10	< 10	< 10	< 10
CC(C)(C)c1cc(N2CCC(=O)NC2=O)cc(NC(=O)c2ccc(NS(C)(=O)=O)cc2)c1O [IA-L4-1.3, N-(3-tert-butyl-5-(2,4-dioxotetrahydropyrimidin-1(2H)-yl)-2-hydroxyphenyl)-4-(methylsulfon amido)benzamide]	100 to 1000	> 1000	100 to 1000	> 1000
COc1c(C#Cc2cc(F)c(NS(C)(=O)=O)cc2C(F)(F)F)cc(N2CCC(=O)NC2=O)cc1C(C)(C)C [IA-L2-1.22, N-(4-((3-tert-butyl-5-(2,4-dioxotetrahydropyrimidin-1(2H)-yl)-2-methoxyphenyl)ethynyl)-2-fluoro-5-(trifluoromethyl)phenyl)methanesulfonamide]	10 to 100	100 to 1000	10 to 100	10 to 100
COc1c(C(=O)Nc2ccc(OS(C)(=O)=O)cc2)cc(N2CCC(=O)NC2=O)cc1C(C)(C)C [IA-L3-1.41, 4-(3-tert-butyl-5-(2,4-dioxotetrahydropyrimidin-1(2H)-yl)-2-methoxybenzamido)phenyl methanesulfonate]	> 1000	> 1000	100 to 1000	100 to 1000
COc1c(C(=O)Nc2ccc(NS(C)(=O)=O)cc2C)cc(N2CCC(=O)NC2=O)cc1C(C)(C)C [IA-L3-1.83, 3-tert-butyl-5-(2,4-dioxotetrahydropyrimidin-1(2H)-yl)-2-methoxy-N-(2-methyl-4-(methylsulfonamido)phenyl)benzamide]	100 to 1000	100 to 1000	10 to 100	100 to 1000
COc1c(-c2ccc(/C=N/NS(C)(=O)=O)cc2)cc(-n2ccc(=O)[nH]c2=O)cc1C(C)(C)C [IB-L0-1.1, (E)-N′-((3′-tert-butyl-5′-(2,4-dioxo-3,4-dihydropyrimidin-1(2H)-yl)-2′-methoxybiphenyl-4-yl)methylene)methanesulfonohydrazide]	< 10	10 to 100	< 10	10 to 100
COc1c(C#Cc2ccc(NS(C)(=O)=O)c3ccccc23)cc(N2CCC(=O)NC2=O)cc1C(C)(C)C [IA-L2-2.1, N-(4-((3-tert-butyl-5-(2,4-dioxotetrahydropyrimidin-1(2H)-yl)-2-methoxyphenyl)ethynyl)-naphthalen-1-yl)methanesulfonamide]	10 to 100	100 to 1000	10 to 100	100 to 1000
COc1c(-c2ccc3c(c2)CCC3CNS(C)(=O)=O)cc(-n2ccc(=O)[nH]c2=O)cc1C(C)(C)C (centres unmarked) [IB-L0-2.17, N-((5-(3-tert-butyl-5-(2,4-dioxo-3,4-dihydropyrimidin-1(2H)-yl)-2-methoxyphenyl)-2,3-dihydro-1H-inden-1-yl)methyl)methanesulfonamide]	10 to 100	10 to 100	< 10	< 10
COc1c(C(=O)Nc2ccc(NS(=O)(=O)CCN3CCOCC3)cc2)cc(N2CCC(=O)NC2=O)cc1C(C)(C)C [IA-L3-1.58, 3-tert-butyl-5-(2,4-dioxotetrahydropyrimidin-1(2H)-yl)-2-methoxy-N-(4-(2-morpholinoethylsulfonamido)phenyl)benzamide]	100 to 1000	–	100 to 1000	100 to 1000
COc1c(C(=O)Nc2ccc(NS(C)(=O)=O)cc2)cc(N2CCC(=O)NC2=O)cc1C(C)C [IA-L3-1.111, 5-(2,4-dioxotetrahydropyrimidin-1(2H)-yl)-3-isopropyl-2-methoxy-N-(4-(methylsulfonamido)phenyl)benzamide]	100 to 1000	–	10 to 100	100 to 1000
COCCS(=O)(=O)Nc1ccc(NC(=O)c2cc(N3CCC(=O)NC3=O)cc(C(C)(C)C)c2OC)cc1 [IA-L3-1.54, 3-tert-butyl-5-(2,4-dioxotetrahydropyrimidin-1(2H)-yl)-2-methoxy-N-(4-(2-methoxyethylsulfonamido)phenyl)benzamide]	100 to 1000	–	10 to 100	10 to 100
COc1c(C#Cc2ccc(NS(C)(=O)=O)cc2C(C)(C)C)cc(-n2ccc(=O)[nH]c2=O)cc1C(C)(C)C [IB-L2-1.10, N-(3-tert-butyl-4-((3-tert-butyl-5-(2,4-dioxo-3,4-dihydropyrimidin-1(2H)-yl)-2-methoxy-phenyl)ethynyl)phenyl)methanesulfonamide]	10 to 100	–	< 10	10 to 100
COc1c(C(=O)Nc2ccc(NS(=O)(=O)CCO)cc2)cc(N2CCC(=O)NC2=O)cc1C(C)(C)C [IA-L3-1.122, 3-tert-butyl-5-(2,4-dioxotetrahydropyrimidin-1(2H)-yl)-N-(4-(2-hydroxyethylsulfonamido)phenyl)-2-methoxybenzamide]	10 to 100	–	10 to 100	10 to 100
COc1c(C#Cc2cnc(NS(C)(=O)=O)cn2)cc(-n2ccc(=O)[nH]c2=O)cc1C(C)(C)C [IB-L2-1.9, N-(5-((3-tert-butyl-5-(2,4-dioxo-3,4-dihydropyrimidin-1(2H)-yl)-2-methoxyphenyl)ethynyl)-pyrazin-2-yl)methanesulfonamide]	10 to 100	> 1000	100 to 1000	–
COc1c(C(=O)Nc2ccc(NS(C)(=O)=O)nc2)cc(N2CCC(=O)NC2=O)cc1C(C)(C)C [IA-L3-1.99, 3-tert-butyl-5-(2,4-dioxotetrahydropyrimidin-1(2H)-yl)-2-methoxy-N-(6-(methylsulfonamido)pyridin-3-yl)benzamide]	100 to 1000	–	10 to 100	100 to 1000
COC(=O)c1cc(NS(C)(=O)=O)ccc1C#Cc1cc(-n2ccc(=O)[nH]c2=O)cc(C(C)(C)C)c1OC [IB-L2-1.7, methyl 2-((3-tert-butyl-5-(2,4-dioxo-3,4-dihydropyrimidin-1(2H)-yl)-2-methoxyphenyl)-ethynyl)-5-(methylsulfonamido)benzoate]	10 to 100	–	< 10	< 10
COc1c(C#Cc2ccc(NS(C)(=O)=O)cc2Cl)cc(-n2ccc(=O)[nH]c2=O)cc1C(C)(C)C [IB-L2-1.2, N-(4-((3-tert-butyl-5-(2,4-dioxo-3,4-dihydropyrimidin-1(2H)-yl)-2-methoxyphenyl)ethynyl)-3-chlorophenyl)methanesulfonamide]	10 to 100	–	< 10	< 10
COc1c(C(=O)Nc2ccc(NS(C)(=O)=O)c([N+](=O)[O-])c2)cc(N2CCC(=O)NC2=O)cc1C(C)(C)C [IA-L3-1.87, 3-tert-butyl-5-(2,4-dioxotetrahydropyrimidin-1(2H)-yl)-2-methoxy-N-(4-(methylsulfonamido)-3-nitrophenyl)benzamide]	100 to 1000	–	> 1000	> 1000
COc1c(NC(=O)c2ccc(NS(C)(=O)=O)cc2)cc(N2CCC(=O)NC2=O)cc1C(C)(C)C [IA-L4-1.9, N-(3-tert-butyl-5-(2,4-dioxotetrahydropyrimidin-1(2H)-yl)-2-methoxyphenyl)-4-(methylsulfonamido)benzamide]	10 to 100	–	10 to 100	10 to 100
CC(C)(C)c1cc(N2CCC(=O)NC2=O)cc(C(=O)Nc2ccc(NS(=O)(=O)CCN3CCOCC3)cc2)c1O [IA-L3-1.14, 3-tert-butyl-5-(2,4-dioxotetrahydropyrimidin-1(2H)-yl)-2-hydroxy-N-(4-(2-morpholinoethylsulfonamido)phenyl)benzamide]	< 10	–	10 to 100	100 to 1000
COc1c(C(=O)Nc2ccc(NS(=O)(=O)CCN(CCO)CCO)cc2)cc(N2CCC(=O)NC2=O)cc1C(C)(C)C [IA-L3-1.56, N-(4-(2-(bis(2-hydroxyethyl)amino)ethylsulfonamido)phenyl)-3-tert-butyl-5-(2,4-dioxo-tetrahydropyrimidin-1(2H)-yl)-2-methoxybenzamide]	100 to 1000	–	100 to 1000	100 to 1000
